Results: ChEMBL document CHEMBL4043250 (Bioorg Med Chem Lett, 2017)

What was measured:
[1] = Selectivity index, ratio of IC50 for human L02 cells to IC50 for human AGS cells; assay type: functional
AGS [2] = test: Anti-proliferative activity against human AGS cells after 48 hrs by MTT assay; assay type: functional, cell-based
L02 = test: (§1) Anti-proliferative activity against human L02 cells after 48 hrs by MTT assay; assay type: ADME, cell-based; set-up: inhibition at 48 h: concentration or dose not given beside the values; conditions: Homo sapiens, L02, 48 h
AGS [3] = test: Growth inhibition of human AGS cells at 100 uM after 48 hrs by MTT assay relative to control; assay type: functional; conditions: read-out: GI
[4] = as §1; assay type: ADME, cell-based; set-up: inhibition at 48 h: concentration or dose not given beside the values; conditions: human, L02 cells
AGS [5] = test: Induction of apoptosis in human AGS cells assessed as early apoptotic cells at 0.1 uM after 48 hrs by Annexin-V-FITC/propidium iodide staining based flow cytometry (reference value: 0.2%); assay type: functional
AGS [6] = test: Induction of apoptosis in human AGS cells assessed as late apoptotic cells at 0.1 uM after 48 hrs by Annexin-V-FITC/propidium iodide staining based flow cytometry (reference value: 0.3%); assay type: functional
AGS [7] = test: Induction of apoptosis in human AGS cells assessed as viable cells at 0.1 uM after 48 hrs by Annexin-V-FITC/propidium iodide staining based flow cytometry (reference value: 97.5%); assay type: functional; conditions: read-out: Activity
AGS [8] = test: Induction of apoptosis in human AGS cells assessed as early apoptotic cells at 10 uM after 48 hrs by Annexin-V-FITC/propidium iodide staining based flow cytometry (reference value: 0.2%); assay type: functional
AGS [9] = test: Induction of apoptosis in human AGS cells assessed as necrotic cells at 0.1 uM after 48 hrs by Annexin-V-FITC/propidium iodide staining based flow cytometry (reference value: 2%); assay type: functional
AGS [10] = test: Cell cycle arrest in human AGS cells assessed as accumulation at S phase at 10 uM after 48 hrs by propidium iodide staining based flow cytometry (reference value: 6.57%); assay type: functional
AGS [11] = test: Cell cycle arrest in human AGS cells assessed as accumulation at G1 phase at 0.1 uM after 48 hrs by propidium iodide staining based flow cytometry (reference value: 77.02%); assay type: functional
AGS [12] = test: Cell cycle arrest in human AGS cells assessed as accumulation at G2 phase at 10 uM after 48 hrs by propidium iodide staining based flow cytometry (reference value: 16.41%); assay type: functional
AGS [13] = test: Induction of apoptosis in human AGS cells assessed as necrotic cells at 10 uM after 48 hrs by Annexin-V-FITC/propidium iodide staining based flow cytometry (reference value: 2%); assay type: functional
AGS [14] = test: Cell cycle arrest in human AGS cells assessed as accumulation at S phase at 0.1 uM after 48 hrs by propidium iodide staining based flow cytometry (reference value: 6.57%); assay type: functional
AGS [15] = test: Cell cycle arrest in human AGS cells assessed as accumulation at G1 phase at 10 uM after 48 hrs by propidium iodide staining based flow cytometry (reference value: 77.02%); assay type: functional
AGS [16] = test: Induction of apoptosis in human AGS cells assessed as viable cells at 10 uM after 48 hrs by Annexin-V-FITC/propidium iodide staining based flow cytometry (reference value: 97.5%); assay type: functional; conditions: read-out: Activity
AGS [17] = test: Induction of apoptosis in human AGS cells assessed as late apoptotic cells at 10 uM after 48 hrs by Annexin-V-FITC/propidium iodide staining based flow cytometry (reference value: 0.3%); assay type: functional
AGS [18] = test: Cell cycle arrest in human AGS cells assessed as accumulation at G2 phase at 0.1 uM after 48 hrs by propidium iodide staining based flow cytometry (reference value: 16.41%); assay type: functional

| SMILES | Ratio IC50 [1] | IC50 (AGS [2]) | IC50 (L02) | inhibition of growth at 100 µM (AGS [3]) | also measured |
| --- | --- | --- | --- | --- | --- |
| O=c1ccc2cc3ccoc3c(OCc3cn(-c4ccc(Cl)cc4)nn3)c2o1 | >12.2 | 8.2 µM | > 100 µM | 89.6% |  |
| O=c1ccc2cc3ccoc3c(OCc3cn(-c4ccccc4F)nn3)c2o1 |  |  |  | 39.6% |  |
| O=c1ccc2cc3ccoc3c(OCc3nncn3-c3ccc(F)cc3)c2o1 | 7.2 | 13.1 µM | 94.2 µM | 72.3% | inhibition at 48 h [4]: 53.1% |
| O=c1ccc2cc3ccoc3c(OCc3cn(Cc4ccccc4Cl)nn3)c2o1 |  |  |  | 33.2% |  |
| Cc1ccc(-n2cc(COc3c4occc4cc4ccc(=O)oc34)nn2)cc1 | >3 | 33.2 µM | > 100 µM | 65.6% |  |
| Cc1ccc(Cn2cc(COc3c4occc4cc4ccc(=O)oc34)nn2)cc1 |  |  |  | 47% |  |
| COc1ccc(-n2cnnc2COc2c3occc3cc3ccc(=O)oc23)cc1 |  |  |  | 34.4% |  |
| O=c1ccc2cc3ccoc3c(OCc3nncn3-c3ccc(Cl)cc3)c2o1 |  |  |  | 40.3% |  |
| O=c1ccc2cc3ccoc3c(OCc3nncn3-c3ccccc3)c2o1 |  |  |  | 40.1% |  |
| O=c1ccc2cc3ccoc3c(OCc3cn(-c4ccc(F)cc4)nn3)c2o1 | >9.3 | 10.7 µM | > 100 µM | 70.4% |  |
| Cc1ccc(-n2cnnc2COc2c3occc3cc3ccc(=O)oc23)cc1 |  |  |  | 39.4% |  |
| O=c1ccc2cc3ccoc3c(OCc3cn(Cc4ccc(Cl)cc4Cl)nn3)c2o1 | 3.4 | 26.5 µM | 90.2 µM | 67.7% |  |
| O=c1ccc2cc3ccoc3c(OCc3cn(Cc4ccccc4F)nn3)c2o1 |  |  |  | 25.5% |  |
| O=c1ccc2cc3ccoc3c(OCc3nncn3-c3ccc(C(F)(F)F)cc3)c2o1 | >2.4 | 41 µM | > 100 µM | 52.9% |  |
| O=c1ccc2cc3ccoc3c(OCc3cn(Cc4cccc(C(F)(F)F)c4)nn3)c2o1 |  | > 100 µM | > 100 µM | 51.7% |  |
| O=c1ccc2cc3ccoc3c(OCc3cn(Cc4ccc(F)cc4)nn3)c2o1 |  |  |  | 43.1% |  |
| O=c1ccc2cc3ccoc3c(OCc3cn(Cc4cccc(Cl)c4)nn3)c2o1 |  |  |  | 49.5% |  |
| O=c1ccc2cc3ccoc3c(OCc3nncn3-c3ccccc3Cl)c2o1 |  |  |  | 45.2% |  |
| O=c1ccc2cc3ccoc3c(OCc3cn(-c4ccc(C(F)(F)F)cc4)nn3)c2o1 | >13.3 | 7.5 µM | > 100 µM | 92.4% | Activity (AGS [5]): 0.3%; Activity (AGS [6]): 0.8%; viability at 0.1 µM (AGS [7]): 96.2%; Activity (AGS [8]): 0.9%; Activity (AGS [9]): 1.8%; Activity (AGS [10]): 12.08%; Activity (AGS [11]): 61.1%; Activity (AGS [12]): 38.17%; Activity (AGS [13]): 1.7%; inhibition at 48 h [4]: 33.9%; Activity (AGS [14]): 7.17%; Activity (AGS [15]): 49.76%; viability at 10 µM (AGS [16]): 96.4%; Activity (AGS [17]): 1%; Activity (AGS [18]): 31.73% |
| Cc1nncn1-c1ccc(F)cc1 |  | > 100 µM | > 100 µM | 13.9% | inhibition at 48 h [4]: 16.9% |
| O=c1ccc2cc3ccoc3c(OCc3cn(-c4ccccc4)nn3)c2o1 |  |  |  | 46.4% |  |
| COc1ccc(-n2cc(COc3c4occc4cc4ccc(=O)oc34)nn2)cc1 | >1.1 | 94.6 µM | > 100 µM | 53.2% |  |
| O=c1ccc2cc3ccoc3c(OCc3cn(Cc4ccccc4)nn3)c2o1 |  |  |  | 24.4% |  |
| O=c1ccc2cc3ccoc3c(OCc3cn(Cc4c(Cl)cccc4Cl)nn3)c2o1 |  |  |  | 32.5% |  |
| O=c1ccc2cc3ccoc3c(OCc3cn(Cc4cccc(F)c4)nn3)c2o1 |  |  |  | 30.1% |  |
| O=c1ccc2cc3ccoc3c(OCc3cn(Cc4ccc(Cl)cc4)nn3)c2o1 | >1.1 | 93.2 µM | > 100 µM | 53.2% |  |
| Cc1cn(-c2ccc(C(F)(F)F)cc2)nn1 |  | > 100 µM | > 100 µM | 44.5% | inhibition at 48 h [4]: 9.4% |
| O=c1[nH]cc(F)c(=O)[nH]1 [FLUOROURACIL] |  | 29.6 µM |  | 74.9% |  |
| COc1c2occc2cc2ccc(=O)oc12 [METHOXSALEN] |  | > 100 µM | > 100 µM | 35.3% | inhibition at 48 h [4]: 3.3% |
